Data as given in PMC9060980 (Evidence-based Complementary and Alternative Medicine : eCAM, 2022).
“And” between values parts separate entries of the source, which are not always exact repeats. Identical values can stand only once. Like-named read-outs stand apart in the source and are kept apart here.

How the values were obtained:
Caco-2 cells = assay: Caco-2 bidirectional transport of paclitaxel; settings: paclitaxel 1 μg/mL alone or with verapamil 100 μM
Method: (§2) The apical (AP) media volume was 500 μL and the basolateral (BL) volume was 1500 μL. […] Verapamil serves as a positive control for this experiment and was added to both compartments prior to initiation. At 30, 60, 90, and 120 min, 100 μL of media was removed from the receiver compartment followed by the addition of 100 μL of preheated buffer as replenishment.

[1] = system: BCL-2 family proteins' expressions in A549; assay: Western blotting of BCL-2 family proteins; assay type: cell-based, human; settings: PTX 50 nM, 24 h
Method: Total cell extracts were lysed in lysis buffer (Ripa, Solarbio, China), and protein extract (60 μg) was added into each well of 10% gel and separated through gel electrophoresis. Gels were soaked in transfer buffer (30 mM glycine, 16 mM Tris-HCl, and 20% methanol) and proteins in the gels were then blotted to polyvinylidene difluoride (PVDF) membranes. Nonfat dry milk in PBST (137 mM NaCl, […], 100 mM Na2HPO4, 20 mM KH2PO4 0.05% tween 20, pH 7.4) was used for blocking nonspecific binding sites. The polyvinylidene difluoride membranes were then incubated with primary antibodies: anti-BCL-2 mAb (1 : 1000), anti-BAK mAB (1 : 2000), anti-MCL-1 pAb (1 : 3000), anti-pMCL-1 mAb (1 : 2000), anti-cyclinB1 mAb (1 : 1000), or anti-b-actin mAb (1 : 5000). Then, secondary antibodies (anti-mouse 1 : 5000, anti-rabbit–1:5000) were applied to the membranes. The ECL western blotting detection kit was used for detecting protein bands in the membranes. Protein bands were detected using the ECL Plus Kit (Huaan biotech, Hangzhou, China), imaged on Tanon 2000. Densitometry analysis was performed using ImageJ software to calculate the relative expression change after normalizing with β-actin.

A549 cells [2] = assay: Flow cytometry with Annexin V/PI staining; assay type: cell-based, human; settings: PTX 50 nM, 24 h
Method: Afterward, they were washed with PBS, counted, and adjusted to 1 × 10^6 cells/ml. Apoptosis of A549 cells was determined by flow cytometry (FC500; Beckman Coulter, Brea, CA, USA) using the Annexin V-fluorescein isothiocyanate (FITC)/propidium iodide (PI) kit (MULTISCIENCES (LIANKE) BIOTECH, CO., LTD, Hangzhou, China). Staining was performed in accordance with the method described in the manufacturer's instructions. The rate of apoptosis was analyzed using MCF software (Beckman Coulter, Brea, CA, USA).

[3] = Mortality, survival, side effect and body weight of A549 xenograft-bearing mice
Method: (§1) Tumor-bearing mice were weighed using an electronic scale and tumor sizes were surveyed with vernier calipers, and these procedures were conducted twice a week. Tumor weight was calculated from the tumor sizes according to the reported formula [30]: tumor volume (mm^3) = (tumor length in mm) × (tumor width in mm)^2/2. One and a half hours after the last administration on Day 34, all mice were sacrificed after blood was collected from the orbital sockets using fine capillaries. […] The serum was separated and analyzed by method described previously.

A549 tumor = assay type: in vivo, BALB/c mice; set-up: tumor weight: unit not given beside the values
Method: as §1

A549 cells [4] = assay: MTT assay in A549; assay type: cell-based; settings: Homo sapiens, 50 nM, 24 h, read-out: inhibition of the proliferation of A549 cells
Method: 100 μL A549 cells (2 × 10^5 cells/mL) were seeded onto a 96-well plate. […] The same volume of complete culture medium served as the negative control. Then, 20 μl MTT solution (5 mg/mL) was added to each well, and the plates were incubated for 4 h. The medium was replaced by 150 μl DMSO, which solubilized the MTT formazan salt. The absorbance of the solution was measured on a microplate reader (Vrioskan Flash, Thermo Scientific, USA) at 490 nm and the results were expressed as a percentage of the control cells.

P-gp = target: T1, P-gp (Homo sapiens, UniProt P08183); assay: Permeation of PTX through MDCK–MDR1 cell monolayers; assay type: in vitro ADME; settings: dog, PTX alone or with VRP 100 μM
T1 construct: expressed in transfected cells; host or cells: MDCK-MDR1 (Madin-Darby canine kidney cells transfected with human MDR1)
Method: To evaluate the inhibitory effect of flavonoids or lignoids on P-gp-induced reflux of PTX across the cultured cell monolayer, MDCK–MDR1cells were seeded on to Falcon 24-multiwell insert system at a density of 6 × 10^5 cells/mL. The detailed method is applied as previous research with some modification (such as time points of sampling including 0, 30, 60, 90, 120 min are selected, and C0 of PTX in the apical compartment is 1 μg/mL).
The apical (AP) media volume was 500 μL and the basolateral (BL) volume was 1500 μL.

in vitro = settings: human, Caco-2
Method: as §2

[5] = Plasma concentration of paclitaxel in A549 xenograft mice; assay type: in vivo; settings: BALB/c, mouse, intraperitoneal, 10 mg/kg, plasma concentration of paclitaxel […] after administration, PTX 10 mg/kg I.P., PTX + WAB 10 + 50 mg/kg I.G., Day 34, mean
Method: Tumor-bearing mice were weighed using an electronic scale and tumor sizes were surveyed with vernier calipers, and these procedures were conducted twice a week. Tumor weight was calculated from the tumor sizes according to the reported formula [30]: tumor volume (mm^3) = (tumor length in mm) × (tumor width in mm)^2/2. One and a half hours after the last administration on Day 34, all mice were sacrificed after blood was collected from the orbital sockets using fine capillaries. […] The serum was separated and analyzed by method described previously [7].

[6] = PTX 10 mg/kg I.P., PTX + WAB 10 + 50 mg/kg I.G.
[7] = PTX 10 mg/kg I.P., PTX + WAB 10 + 50 mg/kg I.G., Day 34

T1 sequence (P08183 whole entry): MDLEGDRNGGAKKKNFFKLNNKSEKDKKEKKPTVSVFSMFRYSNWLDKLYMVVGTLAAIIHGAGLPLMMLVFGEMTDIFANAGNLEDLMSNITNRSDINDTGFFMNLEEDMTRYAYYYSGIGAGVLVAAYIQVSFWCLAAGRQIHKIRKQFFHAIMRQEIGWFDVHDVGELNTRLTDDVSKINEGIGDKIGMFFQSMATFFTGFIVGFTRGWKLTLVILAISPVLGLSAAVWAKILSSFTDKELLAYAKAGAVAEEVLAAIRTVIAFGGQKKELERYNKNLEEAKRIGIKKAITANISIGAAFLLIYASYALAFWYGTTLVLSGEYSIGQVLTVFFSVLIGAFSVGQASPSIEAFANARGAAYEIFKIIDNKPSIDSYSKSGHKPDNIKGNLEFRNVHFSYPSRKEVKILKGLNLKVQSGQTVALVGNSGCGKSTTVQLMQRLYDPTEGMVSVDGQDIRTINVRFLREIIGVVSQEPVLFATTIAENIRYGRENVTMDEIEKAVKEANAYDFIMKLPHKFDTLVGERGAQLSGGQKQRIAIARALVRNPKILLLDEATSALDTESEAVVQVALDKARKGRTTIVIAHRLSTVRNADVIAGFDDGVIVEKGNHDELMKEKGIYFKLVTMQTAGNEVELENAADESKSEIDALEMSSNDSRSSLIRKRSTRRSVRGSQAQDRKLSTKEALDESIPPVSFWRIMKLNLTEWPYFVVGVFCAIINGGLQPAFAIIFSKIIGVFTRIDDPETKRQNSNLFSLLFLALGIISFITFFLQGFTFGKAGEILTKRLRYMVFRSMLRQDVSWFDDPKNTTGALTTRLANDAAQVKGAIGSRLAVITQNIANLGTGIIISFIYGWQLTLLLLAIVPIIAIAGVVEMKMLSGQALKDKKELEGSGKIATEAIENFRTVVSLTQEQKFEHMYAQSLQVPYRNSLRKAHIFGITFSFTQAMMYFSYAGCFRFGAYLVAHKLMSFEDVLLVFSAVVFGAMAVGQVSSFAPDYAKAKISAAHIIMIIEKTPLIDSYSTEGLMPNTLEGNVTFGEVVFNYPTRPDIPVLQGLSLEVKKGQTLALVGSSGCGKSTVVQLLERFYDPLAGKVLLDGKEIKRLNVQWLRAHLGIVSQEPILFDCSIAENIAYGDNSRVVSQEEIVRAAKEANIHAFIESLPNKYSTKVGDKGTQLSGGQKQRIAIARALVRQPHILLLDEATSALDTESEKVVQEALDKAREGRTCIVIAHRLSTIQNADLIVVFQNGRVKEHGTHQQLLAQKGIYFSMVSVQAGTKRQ

CC(=O)O[C@H]1C(=O)[C@@]2(C)[C@H]([C@H](OC(=O)c3ccccc3)[C@]3(O)C[C@H](OC(=O)[C@H](O)[C@@H](NC(=O)c4ccccc4)c4ccccc4)C(C)=C1C3(C)C)[C@]1(OC(C)=O)CO[C@@H]1C[C@@H]2O [Paclitaxel]
Papp AP–BL of paclitaxel (Caco-2 cells): 0.25 ± 0.43 ×10^−6 cm/s
Papp BL–AP of paclitaxel (Caco-2 cells): 75.26 ± 7.43 ×10^−6 cm/s
expressions of cyclinB1, BAK, BCL-2, MCL-1, and pMCL-1 [1]: significantly upregulated
percentage of cells Annexin V positive (A549 cells [2]): approx. 16.3%
apoptosis (A549 cells [2]; with or without HDS-2 80 μg/mL): 17.5%
percentage of cells PI positive (necrosis) (A549 cells [2]; with or without HDS-2 80 μg/mL): approx. 22.8%
Survival rate [3, 6]: 66.7%
Mortality (dead mice) [3, 7]: 4
mortality % ([3]; PTX group, PTX+WAB 10+50 mg/kg, Day 34): 33.33%
tumor volume, group mean (A549 tumor; Day 1, PTX 10 mg/kg I.P., PTX+WAB 10+50 mg/kg I.G.): 80.63 mm^3
tumor volume, group mean (A549 tumor; Day 4, PTX 10 mg/kg I.P., PTX+WAB 10+50 mg/kg I.G.): 88.36 mm^3
tumor volume, group mean (A549 tumor; Day 7, PTX 10 mg/kg I.P., PTX+WAB 10+50 mg/kg I.G.): 123.87 mm^3
tumor volume, group mean (A549 tumor; Day 10, PTX 10 mg/kg I.P., PTX+WAB 10+50 mg/kg I.G.): 140.25 mm^3
tumor volume, group mean (A549 tumor; Day 13, PTX 10 mg/kg I.P., PTX+WAB 10+50 mg/kg I.G.): 170.16 mm^3
tumor volume, group mean (A549 tumor; Day 16, PTX 10 mg/kg I.P., PTX+WAB 10+50 mg/kg I.G.): 131.58 mm^3
tumor volume, group mean (A549 tumor; Day 19, PTX 10 mg/kg I.P., PTX+WAB 10+50 mg/kg I.G.): 181.34 mm^3
tumor volume, group mean (A549 tumor; Day 22, PTX 10 mg/kg I.P., PTX+WAB 10+50 mg/kg I.G.): 174.31 mm^3
tumor volume, group mean (A549 tumor; Day 25, PTX 10 mg/kg I.P., PTX+WAB 10+50 mg/kg I.G.): 203.28 mm^3
tumor volume, group mean (A549 tumor; Day 28, PTX 10 mg/kg I.P., PTX+WAB 10+50 mg/kg I.G.): 256.78 mm^3
tumor volume, group mean (A549 tumor; Day 31, PTX 10 mg/kg I.P., PTX+WAB 10+50 mg/kg I.G.): 273.56 mm^3
tumor volume, group mean (A549 tumor; Day 34, PTX 10 mg/kg I.P., PTX+WAB 10+50 mg/kg I.G.): 263.74 mm^3
activity against A549 tumor growth (A549 tumor; [6]): weak inhibitory activity against A549
Inhibition rate (A549 tumor; [7]): 38.60 ± 64.87%
tumor weight (A549 tumor; PTX 10 mg/kg I.P., PTX+WAB 10+50 mg/kg I.G., Day 34, individual animals, listed as PTX): 0.2469 and 0.1592 and 0.156 and 0.1923 and 0.1802 and 0.1183 and 0.1699
Mean (growth factor) (A549 tumor; PTX 10 mg/kg, PTX+WAB 10+50 mg/kg, from tumor size Day 34/Day 1): 13.43
inhibition at 0.05 µM (A549 cells [4]): ~28%
Papp B→A at 120 min, 1 μg/mL (P-gp): 86.4 ± 14.1 ×10⁻⁶ cm/s
Papp A→B at 120 min, 1 μg/mL (in vitro): 0.252 ×10⁻⁶ cm/s
Papp B→A at 120 min, 1 μg/mL (in vitro): 75.3 ×10⁻⁶ cm/s
concentration at […] [5]: 201 ng/mL
